pEC50: −log10 of the molar value. One block for each compound: values may come before it.
Experiments:
[1] = Crystal form change after drying the sample open at room temperature overnight; type: physicochemical
Description: About 15 mg of crystal Form A of formula (II-1) compound was weighed to add into a 3 mL vial, then adding 1.0 mL MeOH/MTBE (1:1, v/v), stirring at 50° C. for equilibrating about 1 hour, and then filtering to obtain the supernatant.
About 15 mg of crystal Form A of formula (II-1) compound was weighed to add into a 20 mL vial, then dissolving the solids completely with 0.2-1.0 mL MeOH (filtering out the undissolved sample by 0.45 m PTFE filter to obtain clear solution).

[2] = Dynamic vapor sorption (DVS) hygroscopicity study of the crystal forms; type: physicochemical
Description: The dynamic vapor sorption (DVS) curve is collected on the DVS Intrinsic plus by SMS (surface measurement systems). The relative humidity at 25° C. is corrected by the deliquescence point of lithium chloride (LiCl), magnesium nitrate [Mg(NO3)2] and potassium chloride (KCl).
The test parameters are as follows:
The hygroscopicity evaluation is classified as follows:
The specific results are shown as the DVS spectrums in FIGS. 27-29.

[3] = Solid stability of crystal forms under accelerated conditions, XRPD detection; type: physicochemical; conditions: for Crystal form: 75% RH, open, XRPD detection
GLP-1 receptor = target: T1, GLP-1 receptor (Homo sapiens, UniProt P43220); test: Detection of cell viability in vitro (cAMP detection in GLP-1 cells); type: cell-based
T1 construct: host or cells: 'GLP-1 cell' constructed cell strain
Description: OptiPlate-384, White, PerkinElmer (Cat #6007290); 384 well plate for Echo, Labcyte (Cat #P-05525); EnVision, PerkinElmer; Vi-cell counter, Beckman (Cat # Vi-CELL™ XR Cell Viability Analyzer)
The compound was prepared to a working concentration of […] with DMSO. In this test, the use amount of each sample is 5 μL.
Preparation of cAMP detection reagent: 250 μL cAMP-D2, and 250 μL anti-cAMP cryptate reagent were added to 4 mL lysis buffer, then mixing well gently.
The compound to be tested was diluted 3 times at 10 points, the initial concentration was 30 M; and the dilution was completed by Bravo plateform. […]
• 1) A GLP-1 cell cryopreservation tube was quickly thawed in warm water at 37° C. 2) The cell suspension was transferred to a 15 mL Transfer centrifuge tube, then gently rinsing with 10 mL HBSS. • 3) The centrifuge tube was centrifuged at room temperature and 1000 rpm for 1 min. • 4) The supernatant was discarded. • 5) The cells at the bottom were gently dispersed and washed with 10 mL HBSS, then centrifuging to obtain cell sediment, and resuspending the cells with experimental buffer. • 6) Cell density and viability were measured by Vi-cell counter. • 7) GLP-1 cells were diluted with experimental buffer to a concentration of 2.0*10^5/mL. • 8) 100 nL of diluted cell suspension was transferred into OptiPlate-384 plate. • 9) The cells were incubated at room temperature for 30 min. […]

[4] = Study on DMPK in cynomolgus monkeys (oral, single administration); type: in vivo; conditions: cynomolgus monkey, male cynomolgus monkeys, oral 20 mg/kg, plasma
Description: Male cynomolgus monkeys were used as test animals. After single administration, the plasma concentration of the compound was measured, and the pharmacokinetic behavior was evaluated.
Two healthy male cynomolgus monkeys were selected as a group. In the oral group, the vehicle was 20% HP-β-CD aqueous solution; after the compound to be tested was mixed with the vehicle, 4 mg/mL approximately clear solution was prepared by vortex and ultrasound. After oral administration at 20 mg/kg, the whole blood of cynomolgus monkey was collected for a certain period of time to prepare plasma; then the drug concentration was analyzed by LC-MS/MS method, and the pharmacokinetic parameters were calculated by Phoenix WinNonlin software (Pharsight, USA).

[5] = Study on DMPK in rats (oral, single administration); type: in vivo; conditions: rat, male SD rats, oral 5 mg/kg, plasma
Description: Male SD rats were used as test animals. After single administration, the plasma concentration of the compound was measured, and the pharmacokinetic behavior was evaluated.
Two healthy adult male SD rats were selected as the oral group. In the oral group, the vehicle was 20% PEG400/10% solutol/70% water; after the compound to be tested was mixed with the vehicle, 0.5 mg/mL clear solution was prepared by vortex and ultrasound. After oral administration at 5 mg/kg, the whole blood of rat was collected for a certain period of time to prepare plasma; then the drug concentration was analyzed by LC-MS/MS method, and the pharmacokinetic parameters were calculated by Phoenix WinNonlin software (Pharsight, USA).

[6] = read-out: F % (oral bioavailability)

T1 sequence (P43220 24-463): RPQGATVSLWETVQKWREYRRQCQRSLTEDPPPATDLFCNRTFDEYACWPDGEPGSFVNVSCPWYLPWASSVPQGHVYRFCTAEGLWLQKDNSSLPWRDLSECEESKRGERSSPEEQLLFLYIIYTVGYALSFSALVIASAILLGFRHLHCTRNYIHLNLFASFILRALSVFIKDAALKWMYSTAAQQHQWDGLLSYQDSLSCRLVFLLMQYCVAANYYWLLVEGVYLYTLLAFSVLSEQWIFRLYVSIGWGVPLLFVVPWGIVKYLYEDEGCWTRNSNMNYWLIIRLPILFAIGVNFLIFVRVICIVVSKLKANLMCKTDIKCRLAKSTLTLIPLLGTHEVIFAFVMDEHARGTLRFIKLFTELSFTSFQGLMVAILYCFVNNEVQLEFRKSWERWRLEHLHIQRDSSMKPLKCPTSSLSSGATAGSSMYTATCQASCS

- crystal form after drying open at room temperature overnight [1]: transformed into crystal Form E
Structure (SMILES): O=C(O)c1cc2c(nc(CN3CC=C(c4cccc(OCc5ccc(Cl)cc5F)n4)CC3)n2C[C@@H]2CCO2)s1 [crystal Form B]

- crystal form before and after adsorption and desorption [2]: changes
- hygroscopic weight gain ([2]; 25° C. and 80% RH): 2.20%
Structure (SMILES): O=C(O)c1cc2c(nc(CN3CC=C(c4cccc(OCc5ccc(Cl)cc5F)n4)CC3)n2C[C@@H]2CCO2)s1 [crystal Form A]

- Crystal form ([3]; 40° C., Day 5): crystal Form E
- Crystal form ([3]; 40° C., Day 15): crystal Form E
- Crystal form ([3]; 40° C., Month 1): crystal Form E
- Crystal form ([3]; 40° C., Month 2): crystal Form E
- Crystal form ([3]; 60° C., Day 5): crystal Form E
- Crystal form ([3]; 60° C., Day 15): crystal Form E
- Crystal form ([3]; 60° C., Month 1): crystal Form E
- Crystal form ([3]; 60° C., Month 2): crystal Form E
- solid stability (conclusion) ([3]; fully exposed, 40° C./75% RH and 60° C./75% RH, XRPD compared with day 0): good stability
Structure (SMILES): O=C(O)c1cc2c(nc(CN3CC=C(c4cccc(OCc5ccc(Cl)cc5F)n4)CC3)n2C[C@@H]2CCO2)s1 [crystal Form E]

- Cmax [4]: 1420 nM
- AUC(0-t) ([4]; 24-hour oral exposure): 12.8 µM·h
- bioavailability [4, 6]: 22.1%
- Cmax [5]: 85.5 nM
- AUC(0-t) ([5]; 24-hour oral exposure): 0.234 µM·h
- bioavailability [5, 6]: 6.6%
Structure (SMILES): O=C(O)c1cc2c(nc(CN3CC=C(c4cccc(OCc5ccc(Cl)cc5F)n4)CC3)n2C[C@@H]2CCO2)s1 [compound of formula (I)]
- pEC50 (GLP-1 receptor; GLP-1 target in HEK293 host cell, cAMP detection, read-out: Human-GLP1, EC50): 9.43
- ability to stimulate GLP-1 receptor (GLP-1 receptor; cAMP, GLP-1 cells): better ability to stimulate GLP-1 receptor

From patent US20250154161A1, “CRYSTAL FORMS OF THIENOIMIDAZOLE COMPOUND AND PREPARATION METHOD THEREOF” (HANGZHOU SCIWIND BIOSCIENCES CO., LTD., priority 2021, published 2025)
